Here are results for 3 compounds from patent EP4703362A1 (Chengdu Sibeibo Pharmaceutical Technology Co., Ltd, priority 2023, dated 2024).

Broadly, the microsomal CLint is the rate of metabolic loss divided by the concentration. By AUC is commonly meant concentration integrated over time. Broadly, the bioavailability is dose-corrected exposure relative to a reference, in per cent. Broadly, the Ki is the dissociation constant of the complex between target and ligand, obtained from inhibition or displacement. A lower Ki goes with a stronger hold on the target.

Read-outs that look alike come from different tables or passages of the source.

Data set [1] in a line: stability test in liver microsomes (rat). The data set is classed as in vitro ADME. How it is done: (§1) The stability of the compound of the present invention in liver microsomes of rat, monkey and human was determined. Tested compounds of the present invention were the compounds in Examples 6, 8 and 29, and a control drug was Zavegepant.
(§2) 3.2 An appropriate amount of liver microsome solution was transferred into a 1 mL 96-deep-well plate, added with a tested drug liquid (or a probe substrate solution), and pre-incubated in a thermal mixer at 37°C for 5 minutes. Two parts of mixed solutions were taken out from the system and added with 1×PBS to replace NADPH, and the mixed solutions were taken out at 0 and 60 minutes respectively, and added with methanol (containing an internal standard) to terminate the reaction. In the remaining mixed system, each well was added with NADPH to start the reaction. In the tested substance group, mixed solutions were taken out from the system at 0, 5, 15, 30, 45 and 60 minutes, and in the control group, mixed solutions were taken out from the system at 0, 30 and 60 minutes, and the mixed solutions were added methanol (containing an internal standard) to terminate the reaction. All samples of the terminated reaction were mixed evenly and centrifuged in a centrifuge at 3800 rpm for 15 minutes, and the supernatant was taken for LC-MS/MS analysis.
(§3) A peak area was determined by an extracted ion chromatogram. A slope value k was determined by linear regression of a remaining percentage of a parent drug relative to a natural logarithm of an incubation time curve. According to the slope, in-vitro half-life periods (t1/2) were respectively calculated, and in-vitro intrinsic clearance rates (CLint, represented by µL/min/mg protein) were calculated. Calculation formulas were as follows: t1/2 = ln2/k = 0.693/k; and CLint = 0.693/t1/2 /liver microsome protein concentration [formula]
(In general: Liver microsomes are vesicles of endoplasmic reticulum, rich in cytochrome P450 enzymes.)

The nature of data set [2]: stability test in liver microsomes (monkey). It is filed as in vitro ADME. How it is done: as §1, §2, §3
The nature of data set [3]: stability test in liver microsomes (human). The data set is classed as in vitro ADME. As to the method:
as §1, §2, §3

The nature of data set [4]: plasma protein binding rate test, equilibrium dialysis (rat). It is filed as in vitro ADME, SD rat. To be noted: 1 µM, 6 hours, 37°C. As to the method: (§4) Protein binding rates of the compound of the present invention in plasma of rat, monkey and human were determined by an equilibrium dialysis method. Tested compounds of the present invention were the compounds in Examples 6, 8 and 29, and a control drug was Zavegepant.
(§5) 3.1 A dry dialysis membrane was rinsed with ultrapure water for 2-3 times, and then soaked in a phosphate buffer for 1 hour for later use. Polytetrafluoroethylene module was soaked in 20% ethanol for 30 minutes, and then surface moisture was dried with dust-free paper for later use. The pretreated dialysis membrane was assembled into a dialysis plate according to the product specification, and one side (receptor compartment) of an osmotic membrane in each dialysis well was added with 100 µL of receptor fluid (100 mM phosphate buffer solution plus 0.002% Tween 80).
(§6) 3.2 The plasma was put into a centrifuge tube, a working solution of a tested substance was added into the plasma, wherein a final concentration was 1 µM, and the mixture was turned upside down and mixed evenly (this step was carried out in ice bath). 20 µL of drug-containing plasma each was taken, and was respectively transferred to a 96-well sample plate according to two parts in parallel, and stored in a refrigerator at -20°C as a T0 sample.
(§7) 3.3 Another 100 µL of the above drug-containing plasma was transferred to the other side (sample compartment) of the membrane in the dialysis device according to two parts in parallel, and incubated under vibration at a constant temperature of 37°C for 6 hours. After 6 hours of incubation, 20 µL of the plasma was respectively taken out from the receptor compartment and the sample compartment after equilibration to obtain samples B and A. The samples B and A were respectively added with corresponding volumes of corresponding blank plasma or phosphate buffer solution (containing 0.002% Tween 80), so that a volume ratio of the plasma to the buffer solution in each sample well was 1: 1.
(§8) 3.4 All sample wells were added with 250 µL of methanol solution containing an internal standard, mixed evenly and then centrifuged in a centrifuge at 3800 rpm for 10 minutes. […]
(§9) A plasma protein binding rate and a recovery rate of the compound in plasma were calculated by the following formulas: dissociation percentage (%) = CB /CA; [formula] plasma protein binding rate (fb%) = 1−dissociation percentage (%); [formula] recovery rate (%) = (CB+CA)/CT0 [formula] wherein CB was a concentration of the compound in the receptor fluid after equilibrium dialysis; CA was a concentration of the compound in the drug-containing plasma after equilibrium dialysis; and CT0 was an initial concentration of the compound in plasma.

Data set [5] in a line: plasma protein binding rate test, equilibrium dialysis (monkey). It is filed as in vitro ADME, cynomolgus monkey. To be noted: 1 µM, 6 hours, 37°C. How it is done:
as §4, §5, §6, §7, §8, §9
In general terms: Equilibrium dialysis compares concentrations on both sides of a semipermeable membrane.

Data set [6] in a line: plasma protein binding rate test, equilibrium dialysis (human). The data set is classed as in vitro ADME. The note with it: 1 µM, 6 hours, 37°C. As to the method:
as §4, §5, §6, §7, §8, §9

The nature of data set [7]: in-vivo pharmacokinetic study on SD rats, intravenous and intranasal administration. The note with it: for AUC / half-life / Vd / bioavailability / Cmax: rat, plasma; for AUC: read-out: Area under curve AUC; for half-life: read-out: Half-life period t1/2 (converted); for Vd: read-out: Volume of distribution steady-state Vss; for bioavailability: read-out: Bioavailability F%; for Cmax: read-out: Concentration to peak Cmax. How it is done:
Species: SD rats, male, SPF level.
2.1 An appropriate amount of drug was accurately weighed and added with 50 mM succinate buffer (diluted with D5W, pH=5-6), and mixed evenly and dissolved fully in an ultrasonic and vortexed mode to obtain a 0.2 mg/mL drug solution for intravenous (IV) administration.
2.2 An appropriate amount of drug was accurately weighed and added with 50 mM succinate buffer (diluted with pure water, pH=5-6), and mixed evenly and dissolved fully in an ultrasonic and vortexed mode to obtain a 10 mg/mL drug solution for intranasal (IN) administration.
5 minutes, 10 minutes, 15 minutes, 0.5 hour, 1 hour, 2 hours, 4 hours, 8 hours and 24 hours after administration.
Blood was collected through a jugular vein, about 0.2 mL of each sample was collected, EDTA-K2 was used for anticoagulation, the collected blood sample was placed on ice, and plasma was centrifugally separated within 2 hours (at 6000 g and 2-8°C for 5 minutes). The collected plasma samples were stored in a refrigerator at -80°C before analysis, and the remaining plasma samples after analysis were continuously stored in the refrigerator at -80°C for temporary storage.
A concentration of a specified compound in plasma was determined by an LC-MS/MS method, and main pharmacokinetic parameters were calculated by a Winnolin 8.3 non-compartmental model.

Another data set has as its target T1, CGRP receptor (Homo sapiens, UniProt O60894+Q16602).
T1 construct: A tissue homogenate of SK-N-MC cell membrane was used as a receptor source; host or cells: SK-N-MC (membrane preparation)
Nature of the data set: Competitive binding determination of in-vitro [125I] CGRP. The note with it: competition with 125I-CGRP (Human) 200 pM, SK-N-MC cell membrane.

For data set [8], the system named is capsaicin-induced change of blood flow in forearm skin of cynomolgus monkeys. Nature of the data set: in-vivo pharmacodynamic study, capsaicin-induced change of blood flow in forearm skin. To be noted: 0.05 mg/kg IV, 10 minutes after capsaicin treatment. How it is done: • 2.1Animal information: Species and strain: cynomolgus monkeys, male (5-8 kg), animal license: SYXK(Su)2019-0004, depilated 3 days before the experiment. • 2.2Preparation of test sample: An appropriate amount of drug was accurately weighed and dissolved in sterile saline solution, and mixed evenly and dissolved fully in an ultrasonic and vortexed mode to obtain a 0.05 mg/ml drug solution for intravenous (IV) administration. • 2.3In a pre-test stage, a blood flow in a forearm of an anesthetized animal was scanned by a blood flow meter, and an O-shaped rubber ring was placed on an inner side of the arm, avoiding obvious blood vessels.

The mark [9] stands for this setting: male, other: intranasal, IN@2 mg/kg.

For the compound `Cc1cc(C[C@@H](NC(=O)N2CCC(c3cc4c([nH]c3=O)SCC4)CC2)C(=O)N2CCN(C3CCN(C)CC3)CC2)cc2cn[nH]c12` [Example 8, (R)-N-(3-(7-methyl-1H-indazole-5-yl)-1-(4-(1-methylpiperidine-4-yl)piperazine-1-yl)-1-oxopropan-2-yl)-4-(6-oxo-2,3,6,7-tetrahydrothieno[2,3-b]pyridine-5-yl)piperidine-1-formamide], in [1], the half-life at 1 µM is over 2 h, the intrinsic clearance (microsomal CLint) at 1 µM came to 1.6 µL/min/mg and the “% remaining (60 min)” value was determined as 90.7%. Moreover, in [2], the half-life at 1 µM amounted to 1.48 h, the microsomal CLint at 1 µM was 15.6 µL/min/mg and the “% remaining (60 min)” value was 61.6%. In addition, in [3], the half-life at 1 µM is over 2 h, the microsomal CLint at 1 µM was found to be 3.2 µL/min/mg and the “% remaining (60 min)” value came to 85.8%. Moreover, in [4], the “fb (%)” value is reported as 69.4%. The “fb (%)” value in data set [5] came out at 47.7%. In data set [6], the “fb (%)” value worked out at 64.1%. Moreover, in [7] (IV@1 mg/kg), the “Apparent clearance CL” value came to 5.94 mL/min/kg. Besides, in data set [7] (male, IV@1 mg/kg), the AUC came out at 2850 ng·h/mL, the half-life is 7.58 h and the Vd came to 0.5 L/kg. Moreover, in data set [7] (setting [9]), the AUC worked out at 626 ng·h/mL, the bioavailability came out at 11%, the Cmax is 204 ng/mL and the half-life was 3.41 h.

Compound `Cc1cc(C[C@@H](NC(=O)N2CCC(c3cc4ccccc4[nH]c3=O)CC2)C(=O)N2CCN(C3CCN(C)CC3)CC2)cc2cn[nH]c12` [Zavegepant, zavegepant, reference compound] returned a Ki at CGRP receptor of 0.0498 nM. In [1], the half-life at 1 µM was over 2 h, the intrinsic metabolic clearance (microsomal CLint) at 1 µM came to 2.8 µL/min/mg and the “% remaining (60 min)” value is given as 95.5%. In data set [2], the half-life at 1 µM worked out at 1.78 h, the intrinsic metabolic clearance (microsomal CLint) at 1 µM amounted to 13 µL/min/mg and the “% remaining (60 min)” value came to 72.1%. In [3], the half-life at 1 µM was determined as 1.11 h, the microsomal CLint at 1 µM was 20.8 µL/min/mg and the “% remaining (60 min)” value came out at 57.5%. The “fb (%)” value in [4] is 92.7%. The “fb (%)” value in [5] was 78.5%. In addition, the “fb (%)” value in data set [6] is 82.0%. Further, the “Apparent clearance CL” value in data set [7] (IV@1 mg/kg) is 4.59 mL/min/kg. Besides, in [7] (male, IV@1 mg/kg), the exposure (AUC) was found to be 3620 ng·h/mL, the half-life is 2.58 h and the Vd turned out to be 0.35 L/kg. Besides, in data set [7] (setting [9]), the AUC came out at 385 ng·h/mL, the bioavailability stood at 5.31%, the Cmax is 645 ng/mL and the half-life is 1.08 h. For the same compound, in data set [8], the “blood flow inhibition rate (Mean)” value was 89.7%.

On to `Cc1cc(C[C@@H](NC(=O)N2CCC(c3cc4c([nH]c3=O)SCCC4)CC2)C(=O)N2CCN(C3CCN(C)CC3)CC2)cc2cn[nH]c12` [Example 6, (R)-N-(3-(7-methyl-1H-indazole-5-yl)-1-(4-(1-methylpiperidine-4-yl)piperazine-1-yl)-1-oxopropan-2-yl)-4-(7-oxo-3,4,7,8-tetrahydro-2H-thiopyrano[2,3-b]pyridine-6-yl)piperidine-1-for mamide], for which, in data set [1], the half-life at 1 µM is over 2 h, the microsomal CLint at 1 µM is 2.4 µL/min/mg and the “% remaining (60 min)” value is 91.5%. For the same compound, in data set [2], the half-life at 1 µM was over 2 h, the microsomal CLint at 1 µM worked out at 0.8 µL/min/mg and the “% remaining (60 min)” value is reported as 96.9%. For the same compound, in [3], the half-life at 1 µM was over 2 h and the “% remaining (60 min)” value is 131%. In addition, the “fb (%)” value in [4] was determined as 90.0%. In addition, the “fb (%)” value in data set [5] was 61.3%. In addition, the “fb (%)” value in [6] was 76.7%. In addition, in data set [7] (IN@2 mg/kg), the exposure (AUC) was 2400 ng·h/mL, the bioavailability stood at 20.1% and the half-life was 3.8 h. Moreover, in [7] (IV@1 mg/kg), the area under the curve (AUC) worked out at 5990 ng·h/mL, the half-life was 2.52 h and the Vd is 0.29 L/kg. For the same compound, in data set [8], the “blood flow inhibition rate (Mean)” value is 355.3%.
